Measurements as given in PubChem BioAssay AID2060897 (Molecular Pharmacology Branch, DTP, NCI, 2025).

System: 966289-007-R4-J1-PDC complex spheroid viability
Test: Anticancer human tumor 966289-007-R4-J1-PDC patient-derived pancreatic adenocarcinoma cell line growth inhibition [RAS]
Settings: for IC50: curve of first compound; for viability, T/C: stronger effect = lower value
In short: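 Agents were tested in combination matrices in half-log decrements from a top concentration at or near clinical Cmax (10 microM if undetermined). Targets were multi-cell spheroids of tumour lines plus HUVEC and MSC stromal cells.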

[1] = second compound 0.000949 µM, first compound 0.00316 µM
[2] = second compound 0.000949 µM, first compound 0.01 µM
[3] = second compound 0.000949 µM, first compound 0.0316 µM
[4] = second compound 0.000949 µM, first compound 0.1 µM
[5] = second compound 0.000949 µM, first compound 0.316 µM
[6] = second compound 0.000949 µM, first compound 1 µM
[7] = second compound 0.003 µM, first compound 0.00316 µM
[8] = second compound 0.003 µM, first compound 0.01 µM
[9] = second compound 0.003 µM, first compound 0.0316 µM
[10] = second compound 0.003 µM, first compound 0.1 µM
[11] = second compound 0.003 µM, first compound 0.316 µM
[12] = second compound 0.003 µM, first compound 1 µM
[13] = second compound 0.00949 µM, first compound 0.00316 µM
[14] = second compound 0.00949 µM, first compound 0.01 µM
[15] = second compound 0.00949 µM, first compound 0.0316 µM
[16] = second compound 0.00949 µM, first compound 0.1 µM
[17] = second compound 0.00949 µM, first compound 0.316 µM
[18] = second compound 0.00949 µM, first compound 1 µM
[19] = second compound 0.03 µM, first compound 0.00316 µM
[20] = second compound 0.03 µM, first compound 0.01 µM
[21] = second compound 0.03 µM, first compound 0.0316 µM
[22] = second compound 0.03 µM, first compound 0.1 µM
[23] = second compound 0.03 µM, first compound 0.316 µM
[24] = second compound 0.03 µM, first compound 1 µM
[25] = second compound 0.0949 µM, first compound 0.00316 µM
[26] = second compound 0.0949 µM, first compound 0.01 µM
[27] = second compound 0.0949 µM, first compound 0.0316 µM
[28] = second compound 0.0949 µM, first compound 0.1 µM
[29] = second compound 0.0949 µM, first compound 0.316 µM
[30] = second compound 0.0949 µM, first compound 1 µM
[31] = second compound 0.3 µM, first compound 0.00316 µM
[32] = second compound 0.3 µM, first compound 0.01 µM
[33] = second compound 0.3 µM, first compound 0.0316 µM
[34] = second compound 0.3 µM, first compound 0.1 µM
[35] = second compound 0.3 µM, first compound 0.316 µM
[36] = second compound 0.3 µM, first compound 1 µM
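Note: spheroids exposed to agents for one week before readout.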
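Throughout, for viability, T/C: percent viability relative to DMSO vehicle control wells as 100%.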

With `CCN1CCN(Cc2ccc(Nc3ncc(F)c(-c4cc(F)c5nc(C)n(C(C)C)c5c4)n3)nc2)CC1` + CCn1c(-c2cc(N3CCN(C)CC3)cnc2C(C)OC)c2c3cc(ccc31)-c1csc(n1)CC(NC(=O)C1CC1C)C(=O)N1CCCC(N1)C(=O)OCC(C)(C)C2 the IC50 (second compound 0.000949 µM) was > 1000 nM, the IC50 (second compound 0.003 µM) was > 1000 nM and the IC50 (second compound 0.00949 µM) was > 1000 nM. The IC50 (second compound 0.03 µM) was > 1000 nM, the IC50 (second compound 0.0949 µM) was > 1000 nM and the IC50 (second compound 0.3 µM) was > 1000 nM. The viability, T/C [1] was 122%, the viability, T/C [2] was 116% and the viability, T/C [3] was 130%. For the same compound, the viability, T/C [4] was 86.2%, the viability, T/C [5] was 92.2% and the viability, T/C [6] was 89.8%. For the same compound, the viability, T/C [7] was 109%, the viability, T/C [8] was 121% and the viability, T/C [9] was 112%. The viability, T/C [10] was 95.7%, the viability, T/C [11] was 114% and the viability, T/C [12] was 85%. The viability, T/C [13] was 93.9%, the viability, T/C [14] was 116% and the viability, T/C [15] was 120%. For the same compound, the viability, T/C [16] was 97.7%, the viability, T/C [17] was 98.7% and the viability, T/C [18] was 96.7%. For the same compound, the viability, T/C [19] was 85.3%, the viability, T/C [20] was 105% and the viability, T/C [21] was 129%. For the same compound, the viability, T/C [22] was 95%, the viability, T/C [23] was 97.8% and the viability, T/C [24] was 85.1%. The viability, T/C [25] was 129%, the viability, T/C [26] was 100% and the viability, T/C [27] was 115%. It also gave a viability, T/C [28] of 95.9%, a viability, T/C [29] of 86.9% and a viability, T/C [30] of 88.6%. It also gave a viability, T/C [31] of 101%, a viability, T/C [32] of 89.8% and a viability, T/C [33] of 114%. For the same compound, the viability, T/C [34] was 111%, the viability, T/C [35] was 97.9% and the viability, T/C [36] was 79%.

`C=CC(=O)N1CCN(c2nc(OCC3CCCN3C)nc3c(F)c(-c4nc(N)cc(C)c4C(F)(F)F)c(Cl)cc23)C(C)C1` (centres undefined) + CCn1c(-c2cc(N3CCN(C)CC3)cnc2C(C)OC)c2c3cc(ccc31)-c1csc(n1)CC(NC(=O)C1CC1C)C(=O)N1CCCC(N1)C(=O)OCC(C)(C)C2 was tested, and the IC50 (second compound 0.000949 µM) was > 1000 nM, the IC50 (second compound 0.003 µM) was > 1000 nM and the IC50 (second compound 0.00949 µM) was > 1000 nM. For the same compound, the IC50 (second compound 0.03 µM) was > 1000 nM, the IC50 (second compound 0.0949 µM) was > 1000 nM and the IC50 (second compound 0.3 µM) was > 1000 nM. For the same compound, the viability, T/C [1] was 131%, the viability, T/C [2] was 119% and the viability, T/C [3] was 138%. For the same compound, the viability, T/C [4] was 69.5%, the viability, T/C [5] was 77.9% and the viability, T/C [6] was 94.2%. It also gave a viability, T/C [7] of 115%, a viability, T/C [8] of 138% and a viability, T/C [9] of 83.6%. It also gave a viability, T/C [10] of 78.6%, a viability, T/C [11] of 85.3% and a viability, T/C [12] of 86.1%. The viability, T/C [13] was 101%, the viability, T/C [14] was 111% and the viability, T/C [15] was 105%. It also gave a viability, T/C [16] of 74.1%, a viability, T/C [17] of 90.3% and a viability, T/C [18] of 94.4%. The viability, T/C [19] was 80.2%, the viability, T/C [20] was 124% and the viability, T/C [21] was 108%. The viability, T/C [22] was 82%, the viability, T/C [23] was 110% and the viability, T/C [24] was 87.7%. For the same compound, the viability, T/C [25] was 102%, the viability, T/C [26] was 128% and the viability, T/C [27] was 98.3%. The viability, T/C [28] was 104%, the viability, T/C [29] was 125% and the viability, T/C [30] was 103%. For the same compound, the viability, T/C [31] was 79%, the viability, T/C [32] was 137% and the viability, T/C [33] was 128%. The viability, T/C [34] was 97.8%, the viability, T/C [35] was 135% and the viability, T/C [36] was 106%.
